According to publication PMC6225228, “Design, Synthesis and Evaluation of N-pyrazinylbenzamides as Potential Antimycobacterial Agents” (Molecules : A Journal of Synthetic Chemistry and Natural …, 2018):
≈ marks a conversion by molar mass, not a printed value. Where “and” joins values, the source holds several entries; their conditions need not be identical. Equal entries are not always repeated. Where two headings read alike, the source gives them in different places.

Assays:
Format in all cases: cell-based
[1] = system: Staphylococcus aureus CCM 4516/08; test: Antibacterial microdilution broth, SA; conditions: read-out: MIC SA
[2] = system: Staphylococcus aureus H 5996/08 methicillin resistant; test: microbe, parasite or virus in culture; conditions: for MIC: Staphylococcus aureus, MRSA, read-out: MIC MRSA
[3] = system: Staphylococcus epidermidis H 6966/08; test: Antibacterial microdilution broth, SE; conditions: read-out: MIC SE
[4] = system: Enterococcus sp. J 14365/08; test: Antibacterial microdilution broth, EF; conditions: read-out: MIC EF
[5] = system: Escherichia coli CCM 4517; test: Antibacterial microdilution broth, EC; conditions: read-out: MIC EC
[6] = system: Pseudomonas aeruginosa CCM 1961; test: Antibacterial microdilution broth, PA; conditions: read-out: MIC PA
[7] = system: Mycobacterium smegmatis CCM 4622 (ATCC 607); test: Antimycobacterial microdilution, M. smegmatis; conditions: Middlebrook 7H9 with OADC, resazurin
[8] = system: Candida albicans ATCC 44859; test: Antifungal microdilution broth, CA; conditions: Candida albicans, read-out: MIC CA
Candida tropicalis 156 = test: Antifungal microdilution broth, CT; conditions: read-out: MIC CT
Candida krusei E28 = test: Antifungal microdilution broth, CK; conditions: Pichia kudriavzevii, read-out: MIC CK
Candida glabrata 20/I = test: Antifungal microdilution broth, CG; conditions: Nakaseomyces glabratus, 20/I, read-out: MIC CG
Trichosporon asahii 1188 = test: Antifungal microdilution broth, TA; conditions: read-out: MIC TA
[9] = system: Aspergillus fumigatus 231; test: Antifungal microdilution broth, AF; conditions: read-out: MIC AF
[10] = system: Lichtheimia corymbifera 272; test: Antifungal microdilution broth, LC; conditions: read-out: MIC LC
[11] = system: Trichophyton interdigitale 445; test: Antifungal microdilution broth, TI; conditions: read-out: MIC TI
[12] = Staphylococcus aureus, CCM4516, 24 h
[13] = Staphylococcus aureus, CCM4516, 48 h
[14] = Staphylococcus epidermidis, H6966/08, 24 h
[15] = Staphylococcus epidermidis, H6966/08, 48 h
[16] = Enterococcus, SP.J14365/08, 24 h
[17] = Enterococcus, SP.J14365/08, 48 h
[18] = Escherichia coli, CCM4517, 24 h
[19] = Escherichia coli, CCM4517, 48 h
[20] = Pseudomonas aeruginosa, CCM1961, 72 h
[21] = Pseudomonas aeruginosa, CCM1961, 120 h

Row | Compound | MIC ([1]; 24 h) | MIC ([1]; 48 h) | MIC MRSA ([2]; 24 h) [µM] | MIC MRSA ([2]; 48 h) [µM] | MIC ([3]; 24 h) | MIC ([3]; 48 h) [µM] | MIC ([4]; 24 h) [µM] | MIC ([4]; 48 h) [µM] | MIC ([5]; 24 h) [µM] | MIC ([5]; 48 h) [µM] | MIC ([6]; 72 h) [µM] | MIC ([6]; 120 h) [µM] | MIC [1, 12] [µM] | MIC [1, 13] [µM] | MIC ([2]; 24 h) [µM] | MIC ([2]; 48 h) [µM] | MIC [3, 14] [µM] | MIC [3, 15] [µM] | MIC [4, 16] [µM] | MIC [4, 17] [µM] | further results
1 | NC[C@@H]1O[C@H](O[C@H]2[C@@H](O)[C@H](O[C@@H]3[C@@H](O)[C@H](N)C[C@H](N)[C@H]3O[C@H]3O[C@H](CN)[C@@H](O)[C@H](O)[C@H]3N)O[C@@H]2CO)[C@H](N)[C@@H](O)[C@@H]1O [Neom, neomycin, reference compound] | 3.9 µM and 3.90 µM | 3.9 µM and 3.90 µM | 0.98 (≈ 0.602 µg/mL) | 0.98 (≈ 0.602 µg/mL) | 3.9 µM and 3.90 µM | 7.81 (≈ 4.8 µg/mL) | 250 (≈ 154 µg/mL) | 250 (≈ 154 µg/mL) | 0.98 (≈ 0.602 µg/mL) | 0.98 (≈ 0.602 µg/mL) | 7.81 (≈ 4.8 µg/mL) | 15.62 (≈ 9.6 µg/mL) |  |  |  |  |  |  |  |  | 
2 | CC1(C)S[C@@H]2[C@H](NC(=O)Cc3ccccc3)C(=O)N2[C@H]1C(=O)O [Pen, benzylpenicillin, reference compound] |  |  |  |  |  |  |  |  |  |  |  |  | 0.24 (≈ 0.0803 µg/mL) | 0.24 (≈ 0.0803 µg/mL) | 125 (≈ 41.8 µg/mL) | 125 (≈ 41.8 µg/mL) | 31.2 (≈ 10.4 µg/mL) | 125 (≈ 41.8 µg/mL) | 7.81 (≈ 2.61 µg/mL) | 15.6 (≈ 5.22 µg/mL) | MIC [5, 18]: 125 µM (≈ 41.8 µg/mL); MIC [5, 19]: 125 µM (≈ 41.8 µg/mL); MIC [6, 20]: > 500 µM; MIC [6, 21]: > 500 µM
3 | CC1(C)S[C@@H]2[C@H](NC(=O)COc3ccccc3)C(=O)N2[C@H]1C(=O)O [Phen, phenoxymethylpenicillin, reference compound] |  |  |  |  |  |  |  |  |  |  |  |  | 0.24 (≈ 0.0841 µg/mL) | 0.24 (≈ 0.0841 µg/mL) | 250 (≈ 87.6 µg/mL) | 500 (≈ 175 µg/mL) | 62.5 (≈ 21.9 µg/mL) | 250 (≈ 87.6 µg/mL) | 7.81 (≈ 2.74 µg/mL) | 7.81 (≈ 2.74 µg/mL) | MIC [5, 18]: > 500 µM; MIC [5, 19]: > 500 µM; MIC [6, 20]: > 500 µM; MIC [6, 21]: > 500 µM
4 | CO[C@H]1/C=C/O[C@@]2(C)Oc3c(C)c(O)c4c(O)c(c(/C=N/N5CCN(C)CC5)c(O)c4c3C2=O)NC(=O)/C(C)=C\C=C\[C@H](C)[C@H](O)[C@@H](C)[C@@H](O)[C@@H](C)[C@H](OC(C)=O)[C@@H]1C [RFM, rifampicin, reference compound] |  |  |  |  |  |  |  |  |  |  |  |  |  |  |  |  |  |  |  |  | M. smeg. ATCC 607 MIC [7]: 1.56 µg/mL; MIC ([7]; Mycolicibacterium smegmatis, read-out: M. smeg. ATCC 607 MIC): 0.78 to 1.56 µg/mL (≈ 0.948 to 1.9 µM)
5 | C[C@@H](c1ncncc1F)[C@](O)(Cn1cncn1)c1ccc(F)cc1F [VOR, voriconazole, reference compound] |  |  |  |  |  |  |  |  |  |  |  |  |  |  |  |  |  |  |  |  | MIC ([8]; ATCC44859, 24 h): 0.002 µM (≈ 0.000699 µg/mL); MIC ([8]; ATCC44859, 48 h): 0.008 µM (≈ 0.00279 µg/mL); MIC (Candida tropicalis 156; Candida tropicalis, 156, 24 h): 62.5 µM (≈ 21.8 µg/mL); MIC (Candida tropicalis 156; Candida tropicalis, 156, 48 h): 250 µM (≈ 87.3 µg/mL); MIC (Candida krusei E28; E28, 24 h): 0.49 µM (≈ 0.171 µg/mL); MIC (Candida krusei E28; E28, 48 h): 1.95 µM (≈ 0.681 µg/mL); MIC (Candida glabrata 20/I; 24 h): 0.24 µM (≈ 0.0838 µg/mL); MIC (Candida glabrata 20/I; 48 h): 250 µM (≈ 87.3 µg/mL); MIC (Trichosporon asahii 1188; Trichosporon asahii, 1188, 24 h): 0.98 µM (≈ 0.342 µg/mL); MIC (Trichosporon asahii 1188; Trichosporon asahii, 1188, 48 h): 7.81 µM (≈ 2.73 µg/mL); MIC ([9]; Aspergillus fumigatus, 231, 24 h): 0.49 µM (≈ 0.171 µg/mL); MIC ([9]; Aspergillus fumigatus, 231, 48 h): 1.95 µM (≈ 0.681 µg/mL); MIC ([10]; Lichtheimia corymbifera, 272, 24 h): 125 µM (≈ 43.7 µg/mL); MIC ([10]; Lichtheimia corymbifera, 272, 48 h): 250 µM (≈ 87.3 µg/mL); MIC ([11]; Trichophyton interdigitale, 445, 72 h): 0.061 µM (≈ 0.0213 µg/mL); MIC ([11]; Trichophyton interdigitale, 445, 120 h): 0.12 µM (≈ 0.0419 µg/mL)
6 | bacitracin [reference compound] | 15.62 µM | 31.25 µM | 15.62 | 31.25 | 15.62 µM | 31.25 | 31.25 | 31.25 | > 500 | > 500 | > 500 | > 500 |  |  |  |  |  |  |  |  | 
